From ChEMBL document CHEMBL1148615, “3-Amino-1,4,5,6-tetrahydropyrrolo[3,4-c]pyrazoles: a new class of CDK2 inhibitors” (Bioorg Med Chem Lett, 2006)
In brackets after ≈: the same amount, converted by molar mass. Activity calls are given as the source filed them. The rule behind the calls is not given here.

Key:
Aurora kinase A = molecular target: T1, Aurora kinase A (Homo sapiens, UniProt O14965); assay: Inhibitory activity against Aurora A kinase
T1 sequence (O14965 whole entry): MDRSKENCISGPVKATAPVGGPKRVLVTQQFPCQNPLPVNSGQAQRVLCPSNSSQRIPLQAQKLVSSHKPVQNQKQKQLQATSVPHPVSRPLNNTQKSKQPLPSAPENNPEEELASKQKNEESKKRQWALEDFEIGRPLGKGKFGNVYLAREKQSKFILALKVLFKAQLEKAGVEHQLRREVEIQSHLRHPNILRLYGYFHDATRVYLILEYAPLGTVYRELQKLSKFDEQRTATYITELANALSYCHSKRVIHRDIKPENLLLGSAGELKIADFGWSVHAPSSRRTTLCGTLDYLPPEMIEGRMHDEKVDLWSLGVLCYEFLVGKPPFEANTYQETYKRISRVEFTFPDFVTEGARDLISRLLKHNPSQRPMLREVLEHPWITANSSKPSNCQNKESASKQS

[1] = molecular target: Cyclin-dependent kinase 2/cyclin A (Homo sapiens, UniProt P24941); assay: Inhibitory activity against CDK2/Cyclin A; format: protein-complex assay
HCT-116 = assay: Antiproliferative activity against HCT116 cells; format: functional, cell-based; settings: Homo sapiens
[2] = molecular target: Cyclin-dependent kinase 1/cyclin B (Homo sapiens, UniProt P06493); assay: Inhibitory activity against CDK1/Cyclin B; format: protein-complex assay
HT-29 [3] = assay: Cell cycle arrest in HT29 cells by accumulation at G1/S phase; format: functional, cell-based; settings: Homo sapiens
[4] = Plasma protein binding; format: ADME, cell-free; settings: human, read-out: PPB (converted)
A2780 = assay: Antiproliferative activity against A2780 cells; format: functional, cell-based; settings: Homo sapiens
Cytochrome P450 3A4 = Cytochrome P450 3A4 (Homo sapiens, UniProt P08684); assay: Metabolic stability in presence of CYP3A4; format: ADME
Sequence of Cytochrome P450 3A4 (P08684 whole entry): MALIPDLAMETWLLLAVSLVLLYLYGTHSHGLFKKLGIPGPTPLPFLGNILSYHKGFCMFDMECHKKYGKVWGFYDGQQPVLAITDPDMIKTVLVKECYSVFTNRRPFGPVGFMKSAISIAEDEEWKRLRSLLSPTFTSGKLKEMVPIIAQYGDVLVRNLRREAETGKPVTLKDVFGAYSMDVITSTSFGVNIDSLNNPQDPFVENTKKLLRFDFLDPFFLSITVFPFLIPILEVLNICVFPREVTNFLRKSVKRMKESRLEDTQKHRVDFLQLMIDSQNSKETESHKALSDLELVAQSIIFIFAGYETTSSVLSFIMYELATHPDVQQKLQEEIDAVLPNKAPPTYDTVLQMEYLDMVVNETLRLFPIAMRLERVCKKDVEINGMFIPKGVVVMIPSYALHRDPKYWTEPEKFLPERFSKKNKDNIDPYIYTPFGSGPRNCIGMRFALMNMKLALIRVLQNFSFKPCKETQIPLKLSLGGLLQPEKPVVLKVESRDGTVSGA

HT-29 [5] = assay: Incorporation of BrdU in HT29 cells; format: functional, cell-based; settings: Homo sapiens
[6] = molecular target: T2, Cyclin-dependent kinase 2/cyclin A (Homo sapiens) (UniProt P24941+P20248+P78396); assay: Inhibition of hyperphosphorylation of pRb by CDK2/cyclin A at 1 uM; format: functional
[7] = Solubility in buffer; format: physicochemical
[8] = molecular target: Mitogen-activated protein kinase 1 (Homo sapiens, UniProt P28482); assay: Inhibitory activity against p42MAPK
Sequence of Mitogen-activated protein kinase 1 (P28482 whole entry): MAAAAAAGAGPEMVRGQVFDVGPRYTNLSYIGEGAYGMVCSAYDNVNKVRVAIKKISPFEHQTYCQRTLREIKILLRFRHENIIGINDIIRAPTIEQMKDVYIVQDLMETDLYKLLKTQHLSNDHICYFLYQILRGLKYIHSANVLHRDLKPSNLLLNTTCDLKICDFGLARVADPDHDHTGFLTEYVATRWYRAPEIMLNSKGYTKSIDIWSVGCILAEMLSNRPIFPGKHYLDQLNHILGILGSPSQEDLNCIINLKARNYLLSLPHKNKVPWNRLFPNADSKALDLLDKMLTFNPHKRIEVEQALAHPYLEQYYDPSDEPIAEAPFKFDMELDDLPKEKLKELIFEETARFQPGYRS

HT-29 [9] = assay: Antiproliferative activity against HT29 cells; format: functional, cell-based; settings: Homo sapiens
[10] = molecular target: Cyclin-dependent kinase 2/cyclin E (Homo sapiens, UniProt P24941); assay: Inhibitory activity against CDK2/Cyclin E; format: protein-complex assay
[11] = molecular target: Cyclin-dependent kinase 4/cyclin D1 (Homo sapiens, UniProt P11802); assay: Inhibitory activity against CDK4/Cyclin D1; format: protein-complex assay
Sequence of Cyclin-dependent kinase 4/cyclin D1 (P11802 whole entry): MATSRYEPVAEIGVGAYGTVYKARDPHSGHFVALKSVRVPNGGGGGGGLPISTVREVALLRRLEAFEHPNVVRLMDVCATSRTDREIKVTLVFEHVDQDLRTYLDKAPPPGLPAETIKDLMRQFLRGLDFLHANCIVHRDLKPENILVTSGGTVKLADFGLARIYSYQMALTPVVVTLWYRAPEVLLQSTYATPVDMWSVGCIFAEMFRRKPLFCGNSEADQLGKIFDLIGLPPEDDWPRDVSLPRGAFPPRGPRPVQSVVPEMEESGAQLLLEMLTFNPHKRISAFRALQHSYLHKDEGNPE
Sequence of Cyclin-dependent kinase 4/cyclin D1 (P24385 whole entry, further chain): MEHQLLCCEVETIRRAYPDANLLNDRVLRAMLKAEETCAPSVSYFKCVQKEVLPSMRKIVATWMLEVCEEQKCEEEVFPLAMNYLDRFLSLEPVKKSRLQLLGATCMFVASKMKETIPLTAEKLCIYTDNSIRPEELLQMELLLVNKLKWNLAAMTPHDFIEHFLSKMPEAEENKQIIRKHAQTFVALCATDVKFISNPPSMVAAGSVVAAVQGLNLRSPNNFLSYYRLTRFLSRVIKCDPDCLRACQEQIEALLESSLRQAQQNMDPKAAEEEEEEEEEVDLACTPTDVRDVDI

[12] = molecular target: Glycogen synthase kinase-3 beta (Homo sapiens, UniProt P49841); assay: Inhibitory activity against GSK3-beta
Sequence of Glycogen synthase kinase-3 beta (P49841 whole entry): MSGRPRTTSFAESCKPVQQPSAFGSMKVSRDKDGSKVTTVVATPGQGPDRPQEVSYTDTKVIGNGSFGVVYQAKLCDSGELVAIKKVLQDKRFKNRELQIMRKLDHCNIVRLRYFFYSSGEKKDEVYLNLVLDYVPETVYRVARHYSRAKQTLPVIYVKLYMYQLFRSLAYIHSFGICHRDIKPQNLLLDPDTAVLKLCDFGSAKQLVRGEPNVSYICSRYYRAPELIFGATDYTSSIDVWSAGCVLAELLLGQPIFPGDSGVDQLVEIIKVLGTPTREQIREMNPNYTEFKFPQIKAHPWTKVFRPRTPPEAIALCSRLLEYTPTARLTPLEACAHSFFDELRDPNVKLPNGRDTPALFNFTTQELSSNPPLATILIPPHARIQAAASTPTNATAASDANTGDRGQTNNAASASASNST

[13] = molecular target: Cyclin-dependent kinase 5/CDK5 activator 1 (Homo sapiens, UniProt Q00535); assay: Inhibitory activity against CDK5/p25; format: protein-complex assay
Sequence of Cyclin-dependent kinase 5/CDK5 activator 1 (Q00535 whole entry): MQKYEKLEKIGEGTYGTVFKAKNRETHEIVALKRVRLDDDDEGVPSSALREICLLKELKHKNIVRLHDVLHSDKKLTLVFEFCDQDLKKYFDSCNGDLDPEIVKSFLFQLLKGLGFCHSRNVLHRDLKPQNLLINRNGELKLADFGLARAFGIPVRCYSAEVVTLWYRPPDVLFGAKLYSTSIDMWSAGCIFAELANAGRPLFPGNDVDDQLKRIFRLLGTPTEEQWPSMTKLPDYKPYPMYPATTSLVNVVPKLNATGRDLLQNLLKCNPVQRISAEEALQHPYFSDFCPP
Sequence of Cyclin-dependent kinase 5/CDK5 activator 1 (Q15078 whole entry, further chain): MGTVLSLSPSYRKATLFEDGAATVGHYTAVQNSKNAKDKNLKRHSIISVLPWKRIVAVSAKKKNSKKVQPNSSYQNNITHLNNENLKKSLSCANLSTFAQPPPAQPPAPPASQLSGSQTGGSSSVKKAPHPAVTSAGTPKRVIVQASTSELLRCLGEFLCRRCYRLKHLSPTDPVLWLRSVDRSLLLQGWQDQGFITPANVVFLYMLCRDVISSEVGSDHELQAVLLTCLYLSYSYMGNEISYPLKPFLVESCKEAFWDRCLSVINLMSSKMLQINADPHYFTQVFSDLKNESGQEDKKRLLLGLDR

[14] = molecular target: T2, Cyclin-dependent kinase 2/cyclin A (Homo sapiens); assay: Inhibition of hyperphosphorylation of pRb by CDK2/cyclin A at 3 uM; format: functional

SMILES | IC50 (Aurora kinase A) | IC50 [1] | further results
CC(=O)N1Cc2n[nH]c(NC(=O)c3ccc(C#N)cc3)c2C1 | 8500 nM | 1590 nM | –
CC(=O)N1Cc2n[nH]c(NC(=O)c3ccc4c(c3)OCO4)c2C1 | > 10000 nM | 2760 nM | –
CCCCNC(=O)N1Cc2n[nH]c(NC(=O)Cc3ccc(N4CCCC4)cc3)c2C1 | 4200 nM | 33 nM | IC50 (HCT-116): 900 nM; IC50 [2]: 400 nM; Activity (HT-29 [3]): Active; fraction unbound [4]: 0.05; IC50 (A2780): 940 nM; Stability (Cytochrome P450 3A4): 100%; Activity (HT-29 [5]): inactive; Activity [6]: Active; solubility [7]: 39 µM (≈ 16 µg/mL); IC50 [8]: 280 nM; IC50 (HT-29 [9]): 200 nM; IC50 [10]: 91 nM; IC50 [11]: > 10000 nM; IC50 [12]: 300 nM
CC(=O)N1Cc2n[nH]c(NC(=O)c3ccc(F)cc3)c2C1 | > 10000 nM | 2540 nM | –
CCCCNC(=O)N1Cc2n[nH]c(NC(=O)Cc3ccc4ccccc4c3)c2C1 | > 10000 nM | 45 nM | IC50 (A2780): 540 nM
CC(C)C(=O)N1Cc2n[nH]c(NC(=O)c3ccc4c(c3)OCO4)c2C1 | 160 nM | 430 nM | –
CC(=O)N1Cc2n[nH]c(NC(=O)Cc3ccccc3)c2C1 | 2310 nM | 440 nM | –
CC(=O)N1Cc2n[nH]c(NC(=O)c3ccc(C)cc3)c2C1 | 2140 nM | 1080 nM | –
CC(=O)N1Cc2n[nH]c(NC(=O)c3cccc(F)c3)c2C1 | 4850 nM | 2110 nM | –
NC(=O)N1Cc2n[nH]c(NC(=O)Cc3ccccc3)c2C1 | > 10000 nM | 30 nM | –
CCCCNC(=O)N1Cc2n[nH]c(NC(=O)Cc3ccccc3F)c2C1 | > 10000 nM | 51 nM | –
CCCCNC(=O)N1Cc2n[nH]c(NC(=O)Cc3ccc(N4CCCC4=O)cc3)c2C1 | > 10000 nM | 51 nM | IC50 (A2780): 8270 nM
CC(C)NC(=O)N1Cc2n[nH]c(NC(=O)c3ccc4c(c3)OCO4)c2C1 | 390 nM | 120 nM | –
Cc1ccc(C(=O)Nc2[nH]nc3c2CN(C(=O)c2cccc4cccnc24)C3)cc1 | 440 nM | 1050 nM | –
COc1ccc(C(=O)Nc2[nH]nc3c2CN(C(C)=O)C3)cc1 | 660 nM | 1370 nM | –
O=C(Cc1ccccc1)Nc1[nH]nc2c1CN(C(=O)Nc1ccccc1)C2 | > 10000 nM | 730 nM | –
CC(=O)N1Cc2n[nH]c(NC(=O)c3ccccc3)c2C1 | 3110 nM | 1150 nM | –
CCCCNC(=O)N1Cc2n[nH]c(NC(=O)[C@@H](C)c3ccc4ccccc4c3)c2C1 | > 10000 nM | 36 nM | IC50 (HCT-116): 120 nM; IC50 [2]: 750 nM; Activity (HT-29 [3]): Active; fraction unbound [4]: 0.01; IC50 (A2780): 130 nM; Stability (Cytochrome P450 3A4): 20%; Activity (HT-29 [5]): inactive; IC50 [13]: 150 nM; Activity [14]: Active; solubility [7]: 27 µM (≈ 10.9 µg/mL); IC50 [8]: 380 nM; IC50 (HT-29 [9]): 70 nM; IC50 [10]: 90 nM; IC50 [11]: > 10000 nM; IC50 [12]: 50 nM
